Results published in patent US11053204B2, “Pyrimidinyloxy benzene derivatives as herbicides” (FMC Corporation, priority 2015, dated 2021).

What was measured:
Assay type in all cases: in vivo
[1] = test system: pigweed, palmer (palmer pigweed, Amaranthus palmeri); assay: Test C preemergence, plant response rating
[2] = test system: surinam grass (Brachiaria decumbens); assay: Test C preemergence, plant response rating
[3] = test system: wild poinsettia (Euphorbia heterophylla); assay: Test C preemergence, plant response rating
[4] = test system: windgrass (Apera spica-venti); assay: Test C preemergence, plant response rating
[5] = test system: oat, wild (wild oat Avena fatua); assay: Test C preemergence, plant response rating
[6] = test system: blackgrass (Alopecurus myosuroides); assay: Test C postemergence, plant response rating; conditions: Alopecurus myosuroides, post-emergence
How it was run: (§1)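 Pre-emergence: seeds sown in loam soil–sand blend or silt loam and sprayed with test chemicals in a non-phytotoxic solvent mixture with surfactant. Post-emergence: plants 2 to 18 cm (1- to 4-leaf stage) in peat-based potting medium, same formulation. Greenhouse 13 to 15 d; visual rating 0 (no effect) to 100 (complete control) versus controls.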

[7] = test system: chickweed (common chickweed, Stellaria media); assay: Test C postemergence, plant response rating; conditions: Stellaria media, post-emergence
How it was run: as §1

corn (Zea mays) = assay: Test C postemergence, plant response rating; conditions: Zea mays, post-emergence
How it was run: as §1

[8] = test system: foxtail, giant (giant foxtail, Setaria faberii); assay: Test C postemergence, plant response rating; conditions: Setaria faberi, post-emergence
How it was run: as §1

[9] = test system: galium (catchweed bedstraw, Galium aparine); assay: Test C postemergence, plant response rating; conditions: Galium, post-emergence
How it was run: as §1

kochia (Kochia scoparia) = assay: Test C postemergence, plant response rating; conditions: Bassia scoparia, post-emergence
How it was run: as §1

[10] = test system: lambsquarters (Chenopodium album); assay: Test C postemergence, plant response rating; conditions: Chenopodium album, post-emergence
How it was run: as §1

[11] = test system: morningglory (Ipomoea coccinea); assay: Test C postemergence, plant response rating; conditions: Ipomoea, post-emergence
How it was run: as §1

[12] = test system: nutsedge, yellow (yellow nutsedge, Cyperus esculentus); assay: Test C postemergence, plant response rating; conditions: Cyperus, post-emergence
How it was run: as §1

[13] = test system: oat, wild (wild oat Avena fatua); assay: Test C postemergence, plant response rating; conditions: Avena fatua, post-emergence
How it was run: as §1

[14] = test system: oilseed rape (Brassica napus); assay: Test C postemergence, plant response rating; conditions: Brassica napus, post-emergence
How it was run: as §1

[15] = test system: ragweed (common ragweed, Ambrosia elatior); assay: Test C postemergence, plant response rating; conditions: Ambrosia artemisiifolia, post-emergence
How it was run: as §1

soybean (Glycine max) = assay: Test C postemergence, plant response rating; conditions: Glycine max, post-emergence
How it was run: as §1

[16] = test system: velvetleaf (Abutilon theophrasti); assay: Test C postemergence, plant response rating; conditions: Abutilon theophrasti, post-emergence
How it was run: as §1

[17] = test system: waterhemp (common waterhemp, Amaranthus rudis); assay: Test C postemergence, plant response rating; conditions: for Plant response rating, Waterhemp: scale 0 to 100; for Waterhemp plant response rating: scale 0 to 100 (0 no effect, 100 complete control)
How it was run: as §1

[18] = test system: wheat (winter wheat, Triticum aestivum); assay: Test C postemergence, plant response rating; conditions: Triticum aestivum, post-emergence
How it was run: as §1

[19] = 62 g ai/ha, scale 0 to 100 (0 no effect, 100 complete control)
[20] = 125 g ai/ha, scale 0 to 100 (0 no effect, 100 complete control)

## C=C(Br)COC(=O)c1c(Br)cccc1Oc1ncc(Cl)cn1 [Compound 61]
[1]; 16 g ai/ha, scale 0 to 100
  Plant response rating, Pigweed, Palmer: 40
[1]; 31 g ai/ha, scale 0 to 100
  Plant response rating, Pigweed, Palmer: 50
[1]; 62 g ai/ha, scale 0 to 100
  Plant response rating, Pigweed, Palmer: 70
[1]; 125 g ai/ha, scale of 0 to 100
  Plant response rating, Pigweed, Palmer: 75
[2]; 16 g ai/ha, scale 0 to 100
  Plant response rating, Surinam Grass: 0
[2]; 31 g ai/ha, scale 0 to 100
  Plant response rating, Surinam Grass: 10
[2]; 62 g ai/ha, scale 0 to 100
  Plant response rating, Surinam Grass: 60
[2]; 125 g ai/ha, scale of 0 to 100
  Plant response rating, Surinam Grass: 25
[3]; 16 g ai/ha, scale 0 to 100
  Plant response rating, Poinsettia, Wild: 0
[3]; 31 g ai/ha, scale 0 to 100
  Plant response rating, Poinsettia, Wild: 0
[3]; 62 g ai/ha, scale 0 to 100
  Plant response rating, Poinsettia, Wild: 0
[3]; 125 g ai/ha, scale of 0 to 100
  Plant response rating, Poinsettia, Wild: 0
[4]; 16 g ai/ha, scale 0 to 100
  Plant response rating, Windgrass: 0
[4]; 31 g ai/ha, scale 0 to 100
  Plant response rating, Windgrass: 5
[4]; 62 g ai/ha, scale 0 to 100
  Plant response rating, Windgrass: 40
[4]; 125 g ai/ha, scale of 0 to 100
  Plant response rating, Windgrass: 70
[5]; 16 g ai/ha, scale 0 to 100
  Plant response rating, Oat, Wild: 0
[5]; 31 g ai/ha, scale 0 to 100
  Plant response rating, Oat, Wild: 0
[5]; 62 g ai/ha, scale 0 to 100
  Plant response rating, Oat, Wild: 5
[5]; 125 g ai/ha, scale of 0 to 100
  Plant response rating, Oat, Wild: 5

## O=C(OCCCC(F)(F)F)c1c(Br)cccc1Oc1ncc(Cl)cn1 [Compound 20, 4,4,4-trifluorobutyl 2-bromo-6-[(5-chloro-2-pyrimidinyl)oxy]benzoate]
[6]; 16 g ai/ha, scale 0 to 100
  pest or weed control at 16 g/ha: 5%
[6]; 31 g ai/ha, scale 0 to 100
  pest or weed control at 31 g/ha: 5%
[6]; [19]
  pest or weed control at 62 g/ha: 5%
[6]; [20]
  pest or weed control at 125 g/ha: 10%
[7]; 16 g ai/ha, scale 0 to 100
  pest or weed control at 16 g/ha: 60%
[7]; 31 g ai/ha, scale 0 to 100
  pest or weed control at 31 g/ha: 60%
[7]; [19]
  pest or weed control at 62 g/ha: 65%
[7]; [20]
  pest or weed control at 125 g/ha: 75%
Corn (Zea mays); 16 g ai/ha, scale 0 to 100
  Corn plant response rating (crop injury, 0 = no effect, 100 = complete kill) at 16 g/ha: 5%
Corn (Zea mays); 31 g ai/ha, scale 0 to 100
  Corn plant response rating (crop injury, 0 = no effect, 100 = complete kill) at 31 g/ha: 10%
Corn (Zea mays); [19]
  plant injury at 62 g/ha: 10%
Corn (Zea mays); [20]
  plant injury at 125 g/ha: 20%
[8]; 16 g ai/ha, scale 0 to 100
  pest or weed control at 16 g/ha: 10%
[8]; 31 g ai/ha, scale 0 to 100
  pest or weed control at 31 g/ha: 10%
[8]; [19]
  pest or weed control at 62 g/ha: 10%
[8]; [20]
  pest or weed control at 125 g/ha: 25%
[9]; 16 g ai/ha, scale 0 to 100
  pest or weed control at 16 g/ha: 70%
[9]; 31 g ai/ha, scale 0 to 100
  pest or weed control at 31 g/ha: 60%
[9]; [19]
  pest or weed control at 62 g/ha: 80%
[9]; [20]
  pest or weed control at 125 g/ha: 98%
Kochia (Kochia scoparia); 16 g ai/ha, scale 0 to 100
  pest or weed control at 16 g/ha: 95%
Kochia (Kochia scoparia); 31 g ai/ha, scale 0 to 100
  pest or weed control at 31 g/ha: 95%
Kochia (Kochia scoparia); [19]
  pest or weed control at 62 g/ha: 100%
Kochia (Kochia scoparia); [20]
  pest or weed control at 125 g/ha: 100%
[10]; 16 g ai/ha, scale 0 to 100
  pest or weed control at 16 g/ha: 65%
[10]; 31 g ai/ha, scale 0 to 100
  pest or weed control at 31 g/ha: 80%
[10]; [19]
  pest or weed control at 62 g/ha: 70%
[10]; [20]
  pest or weed control at 125 g/ha: 85%
[11]; 16 g ai/ha, scale 0 to 100
  pest or weed control at 16 g/ha: 75%
[11]; 31 g ai/ha, scale 0 to 100
  pest or weed control at 31 g/ha: 65%
[11]; [19]
  pest or weed control at 62 g/ha: 70%
[11]; [20]
  pest or weed control at 125 g/ha: 70%
[12]; 16 g ai/ha, scale 0 to 100
  pest or weed control at 16 g/ha: 0%
[12]; 31 g ai/ha, scale 0 to 100
  pest or weed control at 31 g/ha: 5%
[12]; [19]
  pest or weed control at 62 g/ha: 5%
[12]; [20]
  pest or weed control at 125 g/ha: 10%
[13]; 16 g ai/ha, scale 0 to 100
  pest or weed control at 16 g/ha: 0%
[13]; 31 g ai/ha, scale 0 to 100
  pest or weed control at 31 g/ha: 0%
[13]; [19]
  pest or weed control at 62 g/ha: 5%
[13]; [20]
  pest or weed control at 125 g/ha: 5%
[14]; 16 g ai/ha, scale 0 to 100
  plant injury at 16 g/ha: 50%
[14]; 31 g ai/ha, scale 0 to 100
  plant injury at 31 g/ha: 50%
[14]; [19]
  plant injury at 62 g/ha: 50%
[14]; [20]
  plant injury at 125 g/ha: 60%
[15]; 16 g ai/ha, scale 0 to 100
  pest or weed control at 16 g/ha: 30%
[15]; 31 g ai/ha, scale 0 to 100
  pest or weed control at 31 g/ha: 50%
[15]; [19]
  pest or weed control at 62 g/ha: 55%
[15]; [20]
  pest or weed control at 125 g/ha: 60%
Soybean (Glycine max); 16 g ai/ha, scale 0 to 100
  plant injury at 16 g/ha: 25%
Soybean (Glycine max); 31 g ai/ha, scale 0 to 100
  plant injury at 31 g/ha: 65%
Soybean (Glycine max); [19]
  plant injury at 62 g/ha: 55%
Soybean (Glycine max); [20]
  plant injury at 125 g/ha: 60%
[16]; 16 g ai/ha, scale 0 to 100
  pest or weed control at 16 g/ha: 20%
[16]; 31 g ai/ha, scale 0 to 100
  pest or weed control at 31 g/ha: 50%
[16]; 62 g ai/ha, scale 0 to 100 (0 no effect, 100 complete control), read-out: Velvetleaf plant response rating
  pest or weed control at 62 g/ha: 40%
[16]; [20]
  pest or weed control at 125 g/ha: 70%
[17]; 16 g ai/ha
  Plant response rating, Waterhemp: 75
[17]; 31 g ai/ha
  Plant response rating, Waterhemp: 95
[17]; 62 g ai/ha
  Waterhemp plant response rating: 90
[17]; 125 g ai/ha
  Waterhemp plant response rating: 98
[18]; 16 g ai/ha, scale 0 to 100
  plant injury at 16 g/ha: 0%
[18]; 31 g ai/ha, scale 0 to 100
  plant injury at 31 g/ha: 0%
[18]; 62 g ai/ha, scale 0 to 100 (0 no effect, 100 complete control), read-out: Wheat plant response rating
  plant injury at 62 g/ha: 5%
[18]; [20]
  plant injury at 125 g/ha: 5%
